Assays:
blackgrass [1] = experiment: Test Example 4: herbicidal effect by soil treatment (Table 19, symbol J); format: in vivo, blackgrass (Alopecurus myosuroides); settings: amount of applied herbicide 320 g/ha
Method in brief: (§1)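 Soil-surface application: an emulsion agent diluted with water to the predetermined dose is sprayed uniformly over seeds lying under roughly 1.5 cm of sterilized diluvial soil. Boxes stay in a greenhouse at 25° C. to 30° C. Three weeks later, each species is graded on previously defined criteria.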

barnyard grass [2] = experiment: Test Example 4: herbicidal effect by soil treatment (Table 19, symbol H); format: in vivo, barnyard grass (Echinochloa crus-galli); settings: amount of applied herbicide 320 g/ha
Method in brief: as §1

green foxtail [3] = experiment: Test Example 4: herbicidal effect by soil treatment (Table 19, symbol G); format: in vivo, green foxtail (Setaria viridis); settings: amount of applied herbicide 320 g/ha
Method in brief: as §1

Chinese sprangletop = experiment: Test Example 3: herbicidal effect by foliage application, Wagner pot (Table 18, symbol D); format: in vivo, chinese sprangletop (Leptochloa chinensis); settings: 320 g/ha
Method in brief: (§2)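 Plants were sown in alluvial soil held under 0.1–0.5 cm standing water and grown 14 days in a greenhouse at 25–30 °C. An emulsifiable formulation, water-diluted to the set dose, was then sprayed onto the foliage, and effects were scored three weeks later using previously defined criteria.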

oval-leafed pondweed = experiment: Test Example 1: herbicidal activity, application before weed generation under submerged conditions (Table 16, symbol C); format: in vivo, oval-leafed pondweed (Monochoria vaginalis); settings: amount of applied herbicide 320 g/ha
Method in brief: (§3)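 Emulsion formulation, water-diluted to set dose, was put onto the flooded surface (4 cm depth, alluvial soil) the same day weeds were sown and 2.5-leaf rice transplanted. After 3 weeks at 25-30 °C under glass, each species was rated 0 (≤5% kill) to 5 (≥90% kill).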

lambsquarters [4] = experiment: Test Example 4: herbicidal effect by soil treatment (Table 19, symbol O); format: in vivo, lambsquarters (Chenopodium album); settings: amount of applied herbicide 320 g/ha
Method in brief: as §1

late watergrass = experiment: Test Example 1: herbicidal activity, application before weed generation under submerged conditions (Table 16, symbol A); format: in vivo, late watergrass (Echinochloa oryzicola); settings: amount of applied herbicide 320 g/ha
Method in brief: as §3

chickweed [5] = experiment: Test Example 5: herbicidal effect by foliage application, plastic box (Table 20, symbol P); format: in vivo, common chickweed (Stellaria media); settings: amount of applied herbicide 320 g/ha; foliage application after 14-day growth; evaluated three weeks after application
Method in brief: (§4)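 Sow seeds spot-wise in sterilized diluvial soil; cover with ~1.5 cm soil. Grow 14 days in greenhouse, 25° C. to 30° C. Spray foliage with emulsion diluted to predetermined amount. Rate effect after 3 weeks.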

wild oat [6] = experiment: Test Example 4: herbicidal effect by soil treatment (Table 19, symbol I); format: in vivo, wild oat (Avena fatua); settings: amount of applied herbicide 320 g/ha
Method in brief: as §1

wild oat [7] = experiment: Test Example 5: herbicidal effect by foliage application, plastic box (Table 20, symbol I); format: in vivo, wild oat (Avena fatua); settings: amount of applied herbicide 320 g/ha; foliage application after 14-day growth; evaluated three weeks after application
Method in brief: as §4

velvetleaf [8] = experiment: Test Example 4: herbicidal effect by soil treatment (Table 19, symbol M); format: in vivo, velvetleaf (Abutilon theophrasti); settings: amount of applied herbicide 320 g/ha
Method in brief: as §1

redroot pigweed [9] = experiment: Test Example 5: herbicidal effect by foliage application, plastic box (Table 20, symbol N); format: in vivo, redroot pigweed (Amaranthus retroflexus); settings: amount of applied herbicide 320 g/ha; foliage application after 14-day growth; evaluated three weeks after application
Method in brief: as §4

green foxtail [10] = experiment: Test Example 5: herbicidal effect by foliage application, plastic box (Table 20, symbol G); format: in vivo, green foxtail (Setaria viridis); settings: amount of applied herbicide 320 g/ha; foliage application after 14-day growth; evaluated three weeks after application
Method in brief: as §4

windgrass [11] = experiment: Test Example 4: herbicidal effect by soil treatment (Table 19, symbol L); format: in vivo, windgrass (Apera spica-venti); settings: amount of applied herbicide 320 g/ha
Method in brief: as §1

velvetleaf [12] = experiment: Test Example 5: herbicidal effect by foliage application, plastic box (Table 20, symbol M); format: in vivo, velvetleaf (Abutilon theophrasti); settings: amount of applied herbicide 320 g/ha; foliage application after 14-day growth; evaluated three weeks after application
Method in brief: as §4

Italian ryegrass [13] = experiment: Test Example 4: herbicidal effect by soil treatment (Table 19, symbol K); format: in vivo, Italian ryegrass (Lolium multiflorum); settings: amount of applied herbicide 320 g/ha
Method in brief: as §1

rice flat sedge = experiment: Test Example 3: herbicidal effect by foliage application, Wagner pot (Table 18, symbol E); format: in vivo, rice flat sedge (Cyperus iria); settings: 320 g/ha
Method in brief: as §2

lambsquarters [14] = experiment: Test Example 5: herbicidal effect by foliage application, plastic box (Table 20, symbol O); format: in vivo, lambsquarters (Chenopodium album); settings: amount of applied herbicide 320 g/ha; foliage application after 14-day growth; evaluated three weeks after application
Method in brief: as §4

chickweed [15] = experiment: Test Example 4: herbicidal effect by soil treatment (Table 19, symbol P); format: in vivo, common chickweed (Stellaria media); settings: amount of applied herbicide 320 g/ha
Method in brief: as §1

Italian ryegrass [16] = experiment: Test Example 5: herbicidal effect by foliage application, plastic box (Table 20, symbol K); format: in vivo, Italian ryegrass (Lolium multiflorum); settings: amount of applied herbicide 320 g/ha; foliage application after 14-day growth; evaluated three weeks after application
Method in brief: as §4

southern crabgrass [17] = experiment: Test Example 4: herbicidal effect by soil treatment (Table 19, symbol F); format: in vivo, southern crabgrass (Digitaria ciliaris); settings: amount of applied herbicide 320 g/ha
Method in brief: as §1

redroot pigweed [18] = experiment: Test Example 4: herbicidal effect by soil treatment (Table 19, symbol N); format: in vivo, redroot pigweed (Amaranthus retroflexus); settings: amount of applied herbicide 320 g/ha
Method in brief: as §1

barnyard grass [19] = experiment: Test Example 5: herbicidal effect by foliage application, plastic box (Table 20, symbol H); format: in vivo, barnyard grass (Echinochloa crus-galli); settings: amount of applied herbicide 320 g/ha; foliage application after 14-day growth; evaluated three weeks after application
Method in brief: as §4

southern crabgrass [20] = experiment: Test Example 5: herbicidal effect by foliage application, plastic box (Table 20, symbol F); format: in vivo, southern crabgrass (Digitaria ciliaris); settings: amount of applied herbicide 320 g/ha; foliage application after 14-day growth; evaluated three weeks after application
Method in brief: as §4

persian speedwell [21] = experiment: Test Example 5: herbicidal effect by foliage application, plastic box (Table 20, symbol R); format: in vivo, Persian speedwell (Veronica persica); settings: amount of applied herbicide 320 g/ha; foliage application after 14-day growth; evaluated three weeks after application
Method in brief: as §4

persian speedwell [22] = experiment: Test Example 4: herbicidal effect by soil treatment (Table 19, symbol R); format: in vivo, Persian speedwell (Veronica persica); settings: amount of applied herbicide 320 g/ha
Method in brief: as §1

Japanese bulrush = experiment: Test Example 1: herbicidal activity, application before weed generation under submerged conditions (Table 16, symbol B); format: in vivo, Japanese bulrush (Schoenoplectus juncoides); settings: amount of applied herbicide 320 g/ha
Method in brief: as §3

blackgrass [23] = experiment: Test Example 5: herbicidal effect by foliage application, plastic box (Table 20, symbol J); format: in vivo, blackgrass (Alopecurus myosuroides); settings: amount of applied herbicide 320 g/ha; foliage application after 14-day growth; evaluated three weeks after application
Method in brief: as §4

windgrass [24] = experiment: Test Example 5: herbicidal effect by foliage application, plastic box (Table 20, symbol L); format: in vivo, windgrass (Apera spica-venti); settings: amount of applied herbicide 320 g/ha; foliage application after 14-day growth; evaluated three weeks after application
Method in brief: as §4

barnyard grass [25] = experiment: Test Example 3: herbicidal effect by foliage application, Wagner pot (Table 18, symbol H); format: in vivo, barnyard grass (Echinochloa crus-galli); settings: 320 g/ha
Method in brief: as §2

Row | Compound | Herbicidal effect by soil treatment, J: blackgrass (blackgrass [1]) | Herbicidal effect by soil treatment, H: barnyard grass (barnyard grass [2]) | Herbicidal effect by soil treatment, G: green foxtail (green foxtail [3]) | herbicidal effect on Chinese sprangletop (D) (Chinese sprangletop) | Herbicidal effect, C: oval-leafed pondweed (oval-leafed pondweed) | Herbicidal effect by soil treatment, O: lambsquarters (lambsquarters [4]) | Herbicidal effect, A: late watergrass (late watergrass) | Herbicidal effect by foliage application, P: chickweed (chickweed [5]) | Herbicidal effect by soil treatment, I: wild oat (wild oat [6]) | Herbicidal effect by foliage application, I: wild oat (wild oat [7]) | Herbicidal effect by soil treatment, M: velvetleaf (velvetleaf [8]) | Herbicidal effect by foliage application, N: redroot pigweed (redroot pigweed [9]) | Herbicidal effect by foliage application, G: green foxtail (green foxtail [10]) | Herbicidal effect by soil treatment, L: windgrass (windgrass [11]) | Herbicidal effect by foliage application, M: velvetleaf (velvetleaf [12]) | Herbicidal effect by soil treatment, K: Italian ryegrass (Italian ryegrass [13]) | herbicidal effect on rice flat sedge (E) (rice flat sedge) | Herbicidal effect by foliage application, O: lambsquarters (lambsquarters [14]) | Herbicidal effect by soil treatment, P: chickweed (chickweed [15]) | Herbicidal effect by foliage application, K: Italian ryegrass (Italian ryegrass [16]) | also measured
1 | CCOc1ccccc1-c1sc2c(C)cccc2c1-c1c(O)c(C)nn(C)c1=O [4-112] | 2 (Herbicidal rate of 20% or more and less than 40%) | 3 (Herbicidal rate of 40% or more and less than 70%) | 4 (Herbicidal rate of 70% or more and less than 90%) | 4 (Herbicidal rate of 70% or more and less than 90%) | 0 (Herbicidal rate of 5% or less (almost no effect)) | 3 (Herbicidal rate of 40% or more and less than 70%) | 3 (Herbicidal rate of 40% or more and less than 70%) | 5 (Herbicidal rate of 90% or more (almost completely withered)) | 0 (Herbicidal rate of 5% or less (almost no effect)) | 4 (Herbicidal rate of 70% or more and less than 90%) | 3 (Herbicidal rate of 40% or more and less than 70%) | 5 (Herbicidal rate of 90% or more (almost completely withered)) | 5 (Herbicidal rate of 90% or more (almost completely withered)) | 4 (Herbicidal rate of 70% or more and less than 90%) | 5 (Herbicidal rate of 90% or more (almost completely withered)) | 3 (Herbicidal rate of 40% or more and less than 70%) | 5 (Herbicidal rate of 90% or more (almost completely withered)) | 5 (Herbicidal rate of 90% or more (almost completely withered)) | 3 (Herbicidal rate of 40% or more and less than 70%) | 4 (Herbicidal rate of 70% or more and less than 90%) | Herbicidal effect by soil treatment, F: southern crabgrass (southern crabgrass [17]): 3 (Herbicidal rate of 40% or more and less than 70%); Herbicidal effect by soil treatment, N: redroot pigweed (redroot pigweed [18]): 4 (Herbicidal rate of 70% or more and less than 90%); Herbicidal effect by foliage application, H: barnyard grass (barnyard grass [19]): 4 (Herbicidal rate of 70% or more and less than 90%); Herbicidal effect by foliage application, F: southern crabgrass (southern crabgrass [20]): 4 (Herbicidal rate of 70% or more and less than 90%); Herbicidal effect by foliage application, R: persian speedwell (persian speedwell [21]): 5 (Herbicidal rate of 90% or more (almost completely withered)); Herbicidal effect by soil treatment, R: persian speedwell (persian speedwell [22]): 5 (Herbicidal rate of 90% or more (almost completely withered)); Herbicidal effect, B: Japanese bulrush (Japanese bulrush): 3 (Herbicidal rate of 40% or more and less than 70%); Herbicidal effect by foliage application, J: blackgrass (blackgrass [23]): 5 (Herbicidal rate of 90% or more (almost completely withered)); Herbicidal effect by foliage application, L: windgrass (windgrass [24]): 5 (Herbicidal rate of 90% or more (almost completely withered)); herbicidal effect on barnyard grass (H) (barnyard grass [25]): 5 (Herbicidal rate of 90% or more (almost completely withered))
2 | CCOc1cccc(-c2sc3c(C)cccc3c2-c2c(O)c(C)nn(C)c2=O)c1 [4-114] | 0 (Herbicidal rate of 5% or less (almost no effect)) | 1 (Herbicidal rate of 5% or more and less than 20%) | 4 (Herbicidal rate of 70% or more and less than 90%) | 3 (Herbicidal rate of 40% or more and less than 70%) | 0 (Herbicidal rate of 5% or less (almost no effect)) | 4 (Herbicidal rate of 70% or more and less than 90%) | 3 (Herbicidal rate of 40% or more and less than 70%) | 5 (Herbicidal rate of 90% or more (almost completely withered)) | 0 (Herbicidal rate of 5% or less (almost no effect)) | 0 (Herbicidal rate of 5% or less (almost no effect)) | 0 (Herbicidal rate of 5% or less (almost no effect)) | 4 (Herbicidal rate of 70% or more and less than 90%) | 4 (Herbicidal rate of 70% or more and less than 90%) | 0 (Herbicidal rate of 5% or less (almost no effect)) | 1 (Herbicidal rate of 5% or more and less than 20%) | 4 (Herbicidal rate of 70% or more and less than 90%) | 4 (Herbicidal rate of 70% or more and less than 90%) | 3 (Herbicidal rate of 40% or more and less than 70%) | 3 (Herbicidal rate of 40% or more and less than 70%) | 5 (Herbicidal rate of 90% or more (almost completely withered)) | Herbicidal effect by soil treatment, F: southern crabgrass (southern crabgrass [17]): 4 (Herbicidal rate of 70% or more and less than 90%); Herbicidal effect by soil treatment, N: redroot pigweed (redroot pigweed [18]): 3 (Herbicidal rate of 40% or more and less than 70%); Herbicidal effect by foliage application, H: barnyard grass (barnyard grass [19]): 0 (Herbicidal rate of 5% or less (almost no effect)); Herbicidal effect by foliage application, F: southern crabgrass (southern crabgrass [20]): 4 (Herbicidal rate of 70% or more and less than 90%); Herbicidal effect by foliage application, R: persian speedwell (persian speedwell [21]): 5 (Herbicidal rate of 90% or more (almost completely withered)); Herbicidal effect by soil treatment, R: persian speedwell (persian speedwell [22]): 4 (Herbicidal rate of 70% or more and less than 90%); Herbicidal effect, B: Japanese bulrush (Japanese bulrush): 0 (Herbicidal rate of 5% or less (almost no effect)); Herbicidal effect by foliage application, J: blackgrass (blackgrass [23]): 1 (Herbicidal rate of 5% or more and less than 20%); Herbicidal effect by foliage application, L: windgrass (windgrass [24]): 1 (Herbicidal rate of 5% or more and less than 20%); herbicidal effect on barnyard grass (H) (barnyard grass [25]): 4 (Herbicidal rate of 70% or more and less than 90%)

Reference: patent publication US20230085307A1, “PYRIDAZINONE COMPOUND AND HERBICIDE” (NISSAN CHEMICAL CORPORATION, priority 2019, published 2023)
